Measured values from ChEMBL document CHEMBL4665778, “Discovery of Potent and Selective PI3Kγ Inhibitors” (J Med Chem, 2020).

Experiments:
[1] = biological target: PI3-kinase p110-alpha/p85-alpha (Homo sapiens, UniProt P42336)
Description: Inhibition of recombinant N-terminal FLAG-tagged full-length human PI3K p110alpha/human p85alpha co- expressed in Sf9 insect cells using phosphatidylinositol 4,5-bisphosphate as substrate preincubated for 60 mins followed by substrate addition and measured after 1 hr in presence of ATP by ADP-Glo lipid kinase assay

[2] = biological target: T1, Phosphatidylinositol 4,5-bisphosphate 3-kinase catalytic subunit gamma isoform (Homo sapiens, UniProt P48736)
Description: Inhibition of recombinant N-terminal His-tagged full-length human PI3K p120gamma expressed in Sf9 insect cells using phosphatidylinositol 4,5-bisphosphate as substrate preincubated for 60 mins followed by substrate addition and measured after 1 hr in presence of ATP by ADP-Glo lipid kinase assay

[3] = biological target: PI3-kinase p110-delta/p85-alpha (Homo sapiens, UniProt O00329)
Description: Inhibition of recombinant N-terminal GST-tagged full-length human PI3K p110delta/p85alpha co- expressed in Sf9 insect cells using phosphatidylinositol 4,5-bisphosphate as substrate preincubated for 60 mins followed by substrate addition and measured after 1 hr in presence of ATP by ADP-Glo lipid kinase assay

[4] = biological target: T1, Phosphatidylinositol 4,5-bisphosphate 3-kinase catalytic subunit gamma isoform; remark: listed apart in the source
Description: Inhibition of PI3Kgamma in human THP-1 cells assessed as reduction in Akt phosphorylation at S473 residue incubated for 60 mins by alphalisa assay

[5] = Intrinsic clearance in human hepatocytes assessed per 10^6 cells at 0.5 uM by LC-MS/MS analysis; format: ADME, cell-based, Hepatocyte; settings: read-out: CLH
[6] = Intrinsic clearance rat hepatocytes assessed per 10^6 cells by LC-MS/MS analysis; format: ADME, tissue-based, Hepatocyte; settings: read-out: CLH
[7] = Clearance in Sprague-Dawley rat at 0.25 mg/kg, iv by LC-MS/MS analysis; format: ADME, organism-based; settings: in vivo
[8] = Volume of distribution at steady state in Sprague-Dawley rat at 0.25 mg/kg, iv by LC-MS/MS analysis; format: ADME, organism-based; settings: in vivo, read-out: Vdss
Homo sapiens = organism: Homo sapiens; test: Selectivity index, ratio of IC50 for N-terminal FLAG-tagged full-length human PI3K p110beta/human p85alpha to IC50 for recombinant N-terminal His-tagged full-length human PI3K p120gamma
PI3K p110 beta/p85 alpha = PI3K p110 beta/p85 alpha (Homo sapiens, UniProt P42338)
Description: Inhibition of recombinant N-terminal FLAG-tagged full-length human PI3K p110beta/human p85alpha co- expressed in Sf9 insect cells using phosphatidylinositol 4,5-bisphosphate as substrate preincubated for 60 mins followed by substrate addition and measured after 1 hr in presence of ATP by ADP-Glo lipid kinase assay

CYP3A4 = CYP3A4 (Homo sapiens, UniProt P08684); test: in vitro; settings: liver microsomes, probe midazolam

PI3-kinase p110-delta/p85-alpha, sequence (P27986 whole entry, canonical isoform): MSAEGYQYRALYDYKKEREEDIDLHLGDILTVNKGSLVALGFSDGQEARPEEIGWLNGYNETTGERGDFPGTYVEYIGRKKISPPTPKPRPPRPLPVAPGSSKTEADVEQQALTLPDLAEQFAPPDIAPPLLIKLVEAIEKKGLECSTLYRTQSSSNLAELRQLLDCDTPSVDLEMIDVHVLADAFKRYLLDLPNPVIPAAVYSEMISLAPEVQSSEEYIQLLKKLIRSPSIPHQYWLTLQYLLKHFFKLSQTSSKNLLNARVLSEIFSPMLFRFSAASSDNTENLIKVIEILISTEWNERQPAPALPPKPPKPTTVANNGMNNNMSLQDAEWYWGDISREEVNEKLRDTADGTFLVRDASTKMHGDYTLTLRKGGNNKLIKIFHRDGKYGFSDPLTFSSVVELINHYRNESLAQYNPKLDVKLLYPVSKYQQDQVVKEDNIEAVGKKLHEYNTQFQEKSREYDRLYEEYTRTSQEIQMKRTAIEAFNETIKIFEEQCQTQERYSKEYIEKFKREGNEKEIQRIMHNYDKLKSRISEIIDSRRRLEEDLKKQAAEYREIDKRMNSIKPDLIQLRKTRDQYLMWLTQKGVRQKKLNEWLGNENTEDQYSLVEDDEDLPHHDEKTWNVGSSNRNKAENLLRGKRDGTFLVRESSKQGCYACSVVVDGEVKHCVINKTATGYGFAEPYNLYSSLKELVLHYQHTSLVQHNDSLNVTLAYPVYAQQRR
PI3-kinase p110-delta/p85-alpha, sequence (O00329 whole entry, canonical isoform): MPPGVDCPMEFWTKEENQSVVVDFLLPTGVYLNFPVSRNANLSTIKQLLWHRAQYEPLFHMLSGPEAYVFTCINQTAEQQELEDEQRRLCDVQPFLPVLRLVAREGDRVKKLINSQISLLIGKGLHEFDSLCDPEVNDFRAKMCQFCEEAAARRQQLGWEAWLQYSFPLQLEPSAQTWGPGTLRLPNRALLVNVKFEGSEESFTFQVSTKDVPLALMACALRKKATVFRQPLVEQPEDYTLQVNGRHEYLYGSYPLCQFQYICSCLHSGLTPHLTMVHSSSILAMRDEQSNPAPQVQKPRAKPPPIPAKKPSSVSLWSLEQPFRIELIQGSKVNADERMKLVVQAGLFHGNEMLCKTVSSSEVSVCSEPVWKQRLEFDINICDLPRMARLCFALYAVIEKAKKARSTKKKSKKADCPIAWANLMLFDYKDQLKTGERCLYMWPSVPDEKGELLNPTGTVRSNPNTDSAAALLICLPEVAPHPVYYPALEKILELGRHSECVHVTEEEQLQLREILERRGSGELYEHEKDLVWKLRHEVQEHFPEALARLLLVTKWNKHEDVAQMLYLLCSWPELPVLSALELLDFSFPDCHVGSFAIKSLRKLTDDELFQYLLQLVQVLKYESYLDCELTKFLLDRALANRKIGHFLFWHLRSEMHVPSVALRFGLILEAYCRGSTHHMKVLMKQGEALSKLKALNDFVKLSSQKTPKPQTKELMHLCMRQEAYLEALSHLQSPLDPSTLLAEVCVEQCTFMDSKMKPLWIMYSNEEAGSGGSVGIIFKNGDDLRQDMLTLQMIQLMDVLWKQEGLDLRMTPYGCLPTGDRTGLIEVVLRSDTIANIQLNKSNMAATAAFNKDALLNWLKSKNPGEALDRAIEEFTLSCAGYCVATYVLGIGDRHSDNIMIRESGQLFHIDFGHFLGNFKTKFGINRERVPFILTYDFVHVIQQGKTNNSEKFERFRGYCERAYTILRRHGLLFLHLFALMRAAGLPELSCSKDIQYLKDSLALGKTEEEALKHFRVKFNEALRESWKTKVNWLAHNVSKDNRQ
PI3-kinase p110-alpha/p85-alpha, sequence (P27986 whole entry, canonical isoform): as the sequence (P27986 whole entry, canonical isoform) above
PI3-kinase p110-alpha/p85-alpha, sequence (P42336 whole entry, canonical isoform): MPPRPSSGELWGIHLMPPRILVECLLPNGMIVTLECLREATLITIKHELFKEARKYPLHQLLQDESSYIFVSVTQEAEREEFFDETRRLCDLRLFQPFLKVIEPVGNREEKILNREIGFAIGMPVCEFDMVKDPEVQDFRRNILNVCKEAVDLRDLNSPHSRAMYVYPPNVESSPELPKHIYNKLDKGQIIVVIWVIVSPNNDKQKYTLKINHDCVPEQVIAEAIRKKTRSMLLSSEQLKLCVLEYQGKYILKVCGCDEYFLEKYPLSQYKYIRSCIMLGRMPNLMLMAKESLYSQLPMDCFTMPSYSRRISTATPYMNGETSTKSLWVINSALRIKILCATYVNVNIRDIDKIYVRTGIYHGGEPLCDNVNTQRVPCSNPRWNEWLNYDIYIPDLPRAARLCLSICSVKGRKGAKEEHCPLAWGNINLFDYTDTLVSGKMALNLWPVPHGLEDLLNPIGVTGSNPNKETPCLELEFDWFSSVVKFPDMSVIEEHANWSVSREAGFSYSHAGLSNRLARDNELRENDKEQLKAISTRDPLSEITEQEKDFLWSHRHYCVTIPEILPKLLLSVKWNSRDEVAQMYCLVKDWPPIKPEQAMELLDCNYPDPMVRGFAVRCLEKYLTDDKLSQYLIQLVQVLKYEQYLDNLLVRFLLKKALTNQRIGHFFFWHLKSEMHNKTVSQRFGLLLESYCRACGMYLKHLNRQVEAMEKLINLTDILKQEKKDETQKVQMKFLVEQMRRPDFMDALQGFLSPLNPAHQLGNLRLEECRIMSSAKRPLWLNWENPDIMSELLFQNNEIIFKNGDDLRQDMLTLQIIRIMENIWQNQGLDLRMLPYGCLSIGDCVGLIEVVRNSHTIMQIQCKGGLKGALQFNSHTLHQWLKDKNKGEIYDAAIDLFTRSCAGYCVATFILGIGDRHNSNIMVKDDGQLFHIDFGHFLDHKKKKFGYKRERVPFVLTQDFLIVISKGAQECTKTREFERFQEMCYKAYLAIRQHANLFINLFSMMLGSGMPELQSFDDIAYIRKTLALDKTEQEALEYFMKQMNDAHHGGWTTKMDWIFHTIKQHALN
PI3K p110 beta/p85 alpha, sequence (P27986 whole entry): as the sequence (P27986 whole entry, canonical isoform) above
PI3K p110 beta/p85 alpha, sequence (P42338 whole entry): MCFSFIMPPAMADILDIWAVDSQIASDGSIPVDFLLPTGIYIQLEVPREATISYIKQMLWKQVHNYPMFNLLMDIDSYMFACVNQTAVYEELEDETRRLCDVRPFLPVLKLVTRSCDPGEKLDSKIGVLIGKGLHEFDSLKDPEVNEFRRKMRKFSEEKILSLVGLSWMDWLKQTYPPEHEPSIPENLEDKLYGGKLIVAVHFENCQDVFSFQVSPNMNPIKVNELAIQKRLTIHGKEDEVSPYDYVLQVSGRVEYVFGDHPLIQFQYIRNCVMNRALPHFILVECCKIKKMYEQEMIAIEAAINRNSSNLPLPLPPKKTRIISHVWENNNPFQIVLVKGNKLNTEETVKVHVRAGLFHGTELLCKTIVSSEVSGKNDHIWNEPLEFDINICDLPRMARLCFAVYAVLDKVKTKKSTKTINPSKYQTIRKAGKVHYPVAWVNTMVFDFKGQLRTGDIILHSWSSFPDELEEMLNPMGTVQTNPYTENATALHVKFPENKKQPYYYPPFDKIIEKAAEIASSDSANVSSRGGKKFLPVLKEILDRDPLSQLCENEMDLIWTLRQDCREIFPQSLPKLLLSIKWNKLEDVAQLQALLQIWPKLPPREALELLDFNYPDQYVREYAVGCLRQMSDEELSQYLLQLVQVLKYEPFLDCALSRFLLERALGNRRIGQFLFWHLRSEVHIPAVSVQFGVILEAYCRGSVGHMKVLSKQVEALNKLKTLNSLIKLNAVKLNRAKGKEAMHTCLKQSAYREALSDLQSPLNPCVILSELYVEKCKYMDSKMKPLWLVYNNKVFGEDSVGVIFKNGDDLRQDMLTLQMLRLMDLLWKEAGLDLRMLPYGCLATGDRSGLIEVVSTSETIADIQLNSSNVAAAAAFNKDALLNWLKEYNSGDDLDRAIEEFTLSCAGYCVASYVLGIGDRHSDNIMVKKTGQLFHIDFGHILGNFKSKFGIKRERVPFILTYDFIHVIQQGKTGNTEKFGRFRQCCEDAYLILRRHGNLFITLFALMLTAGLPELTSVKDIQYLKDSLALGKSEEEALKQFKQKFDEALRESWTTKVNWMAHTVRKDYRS
T1 sequence (P48736 whole entry, canonical isoform): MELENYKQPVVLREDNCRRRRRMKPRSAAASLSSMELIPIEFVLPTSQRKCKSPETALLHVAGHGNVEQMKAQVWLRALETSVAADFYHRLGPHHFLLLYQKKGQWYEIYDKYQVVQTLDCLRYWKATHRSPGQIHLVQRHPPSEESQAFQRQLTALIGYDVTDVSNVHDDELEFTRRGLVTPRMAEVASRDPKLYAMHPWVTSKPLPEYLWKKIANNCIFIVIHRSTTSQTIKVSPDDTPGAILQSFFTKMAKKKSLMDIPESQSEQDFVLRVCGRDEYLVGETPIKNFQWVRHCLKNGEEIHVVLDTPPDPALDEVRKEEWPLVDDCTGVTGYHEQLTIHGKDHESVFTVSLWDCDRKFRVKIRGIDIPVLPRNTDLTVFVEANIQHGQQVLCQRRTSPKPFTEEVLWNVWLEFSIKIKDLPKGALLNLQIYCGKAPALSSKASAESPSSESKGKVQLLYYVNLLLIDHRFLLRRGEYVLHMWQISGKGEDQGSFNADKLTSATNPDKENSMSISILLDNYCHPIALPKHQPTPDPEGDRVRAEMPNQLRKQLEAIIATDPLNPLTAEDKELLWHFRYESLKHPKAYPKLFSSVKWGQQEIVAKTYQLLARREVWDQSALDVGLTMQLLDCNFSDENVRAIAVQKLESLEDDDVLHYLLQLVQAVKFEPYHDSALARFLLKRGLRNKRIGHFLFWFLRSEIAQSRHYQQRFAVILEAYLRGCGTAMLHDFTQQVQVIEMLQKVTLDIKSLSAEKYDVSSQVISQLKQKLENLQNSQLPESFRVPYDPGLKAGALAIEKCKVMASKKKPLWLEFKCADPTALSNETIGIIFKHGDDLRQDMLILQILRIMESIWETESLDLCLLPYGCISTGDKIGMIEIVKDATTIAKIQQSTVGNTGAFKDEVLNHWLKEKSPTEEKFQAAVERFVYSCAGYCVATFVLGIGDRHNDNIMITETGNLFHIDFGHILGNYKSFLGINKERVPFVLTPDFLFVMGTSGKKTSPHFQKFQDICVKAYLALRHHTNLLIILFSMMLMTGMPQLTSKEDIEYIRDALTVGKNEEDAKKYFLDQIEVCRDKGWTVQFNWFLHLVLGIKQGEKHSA

Cc1cc(-c2ccn3nc(N)c(-c4ccc(CC(=O)O)cc4)c3n2)cc2c1C(=O)N([C@@H](C)C1CC1)C2
IC50 [1]: 5.45 µM
IC50 [2]: 2.1 nM
IC50 [3]: 4.66 µM
IC50 [4]: 870 nM

CC(C)c1cc(-c2cnn3ccc(-c4cc5c(c(C(F)(F)F)c4)C(=O)N([C@@H](C)C4CC4)C5)nc23)ccc1C(=O)O
hepatocyte CLint at 0.5 µM [5]: < 1.2 µL/min/1e6 cells
hepatocyte CLint [6]: 1.7 µL/min/1e6 cells
clearance [7]: 86.7 mL/min/kg
Vd [8]: 25 L/kg
Ratio IC50 (Homo sapiens): 5520
IC50 [1]: 0.194 µM
IC50 (PI3K p110 beta/p85 alpha): 11.6 µM
IC50 [2]: 2.1 nM
IC50 [3]: 0.459 µM
IC50 [4]: 74 nM
inhibition at 10 µM (CYP3A4): 13%

COCC(=O)Nc1cn2nc(-c3cc(C)c4c(c3)CN([C@@H](C)C3CC3)C4=O)ccc2n1
IC50 [1]: > 10 µM
IC50 [2]: 14 nM
IC50 [3]: > 10 µM
IC50 [4]: 690 nM

Cc1cc(-c2ccn3nc(N)c(-c4nc[nH]n4)c3n2)cc2c1C(=O)N([C@@H](C)C1CC1)C2
IC50 [1]: 6.29 µM
IC50 [2]: 31 nM
IC50 [3]: 6.05 µM
IC50 [4]: 630 nM

Cc1cc(-c2ccc3nc(N)nn3c2)cc2c1C(=O)N([C@@H](C)C1CC1)C2 (racemic)
Ratio IC50 (Homo sapiens): > 34
IC50 [1]: > 10 µM
IC50 (PI3K p110 beta/p85 alpha): > 10 µM
IC50 [2]: 291 nM
IC50 [3]: > 10 µM
IC50 [4]: 15000 nM

CC(=O)Nc1nc2ccc(-c3cc(C)c4c(c3)CN([C@@H](C)C3CC3)C4=O)cn2n1 (racemic)
Ratio IC50 (Homo sapiens): > 131
IC50 [1]: > 10 µM
IC50 (PI3K p110 beta/p85 alpha): > 10 µM
IC50 [2]: 76 nM
IC50 [3]: > 10 µM
IC50 [4]: 3000 nM

CNS(=O)(=O)c1cc(-c2ccn3nc(NC(C)=O)cc3n2)cc2c1C(=O)N([C@@H](C)C1CC1)C2
IC50 [1]: 9.85 µM
IC50 [2]: 2.7 nM
IC50 [3]: 4.55 µM
IC50 [4]: 240 nM

Cc1cc(-c2ccc3nc(NS(C)(=O)=O)cn3n2)cc2c1C(=O)N([C@@H](C)C1CC1)C2
IC50 [1]: > 10 µM
IC50 [2]: 5300 nM
IC50 [3]: > 10 µM
IC50 [4]: > 30000 nM

Cc1cc(-c2ccn3nc(N)c(-c4cnn(CCO)c4)c3n2)cc2c1C(=O)N([C@@H](C)C1CC1)C2
IC50 [1]: 1.16 µM
IC50 [2]: 6.4 nM
IC50 [3]: 1.16 µM
IC50 [4]: 400 nM

Cc1cc(-c2ccn3nc(N)c(-c4ccncn4)c3n2)cc2c1C(=O)N([C@@H](C)C1CC1)C2
IC50 [1]: 2.73 µM
IC50 [2]: 7.5 nM
IC50 [3]: 2.2 µM
IC50 [4]: 550 nM

C[C@@H](C1CC1)N1Cc2cc(-c3ccn4nc(N)c(-c5cnn(C)c5)c4n3)cc(C(F)(F)F)c2C1=O
hepatocyte CLint at 0.5 µM [5]: 3.3 µL/min/1e6 cells
hepatocyte CLint [6]: 7.4 µL/min/1e6 cells
clearance [7]: 13 mL/min/kg
Vd [8]: 1.2 L/kg
IC50 [1]: 1.94 µM
IC50 (PI3K p110 beta/p85 alpha): > 15 µM
IC50 [2]: 1.9 nM
IC50 [3]: 1.31 µM
IC50 [4]: 64 nM

CC(=O)Nc1cc2nc(-c3cc(C)c4c(c3)CN([C@@H](C)C3CC3)C4=O)ccn2n1
IC50 [1]: > 10 µM
IC50 [2]: 4.4 nM
IC50 [3]: > 10 µM
IC50 [4]: 240 nM

Cc1cc(-c2ccc3nc(N)c(-c4cnn(C)c4)n3n2)cc2c1C(=O)N([C@@H](C)C1CC1)C2
IC50 [1]: > 10 µM
IC50 [2]: 17 nM
IC50 [3]: > 10 µM
IC50 [4]: 490 nM

CC(=O)Nc1cc2nc(-c3cc4c(c(NS(C)(=O)=O)c3)C(=O)N([C@@H](C)C3CC3)C4)ccn2n1
IC50 [1]: 8.97 µM
IC50 [2]: 1.3 nM
IC50 [3]: 6.14 µM
IC50 [4]: 160 nM

CC(=O)Nc1nc2cc(-c3cc(C)c4c(c3)CN([C@@H](C)C3CC3)C4=O)ccc2[nH]1 (racemic)
Ratio IC50 (Homo sapiens): > 21
IC50 [1]: > 10 µM
IC50 (PI3K p110 beta/p85 alpha): > 10 µM
IC50 [2]: 482 nM
IC50 [3]: > 10 µM
IC50 [4]: 1000 nM

Cc1nn(C)cc1-c1c(N)nn2ccc(-c3cc4c(c(C(F)(F)F)c3)C(=O)N([C@@H](C)C3CC3)C4)nc12
IC50 [1]: > 10 µM
IC50 [2]: 8 nM
IC50 [3]: 4.55 µM
IC50 [4]: 470 nM

Cc1cc(-c2ccc3nc(NC(=O)c4ccccc4)cn3n2)cc2c1C(=O)N([C@@H](C)C1CC1)C2
IC50 [1]: > 10 µM
IC50 [2]: 93 nM
IC50 [3]: > 10 µM
IC50 [4]: 12000 nM

Cc1c(-c2c(N)nn3ccc(-c4cc5c(c(C(F)(F)F)c4)C(=O)N([C@@H](C)C4CC4)C5)nc23)cnn1C
IC50 [1]: 1.51 µM
IC50 [2]: 6.6 nM
IC50 [3]: 2.24 µM
IC50 [4]: 440 nM

Cc1cc(-c2ccn3ncc(-c4cnn(C)c4)c3n2)cc2c1C(=O)N([C@@H](C)C1CC1)C2
IC50 [1]: 4.14 µM
IC50 [2]: 9.1 nM
IC50 [3]: 3.44 µM
IC50 [4]: 300 nM

Cc1cc(-c2ccc3nc(NC(=O)C(C)C)cn3n2)cc2c1C(=O)N([C@@H](C)C1CC1)C2
IC50 [1]: > 10 µM
IC50 [2]: 70 nM
IC50 [3]: > 10 µM
IC50 [4]: 9400 nM

CC(=O)Nc1nn2ccc(-c3cc(C)c4c(c3)CN([C@@H](C)C3CC3)C4=O)nc2c1-c1cnn(C)c1
IC50 [1]: > 10 µM
IC50 [2]: 429 nM
IC50 [3]: > 10 µM
IC50 [4]: 1500 nM

CCC(=O)Nc1cn2nc(-c3cc(C)c4c(c3)CN([C@@H](C)C3CC3)C4=O)ccc2n1
IC50 [1]: > 10 µM
IC50 [2]: 7.3 nM
IC50 [3]: > 10 µM
IC50 [4]: 830 nM

Cc1cc(-c2ccc3ncc(-c4cnn(C)c4)n3n2)cc2c1C(=O)N([C@@H](C)C1CC1)C2
IC50 [1]: > 10 µM
IC50 [2]: 15 nM
IC50 [3]: 2.38 µM
IC50 [4]: 440 nM

Cc1cc(-c2ccn3nc(N)cc3n2)cc2c1C(=O)N([C@@H](C)C1CC1)C2
IC50 [1]: > 10 µM
IC50 [2]: 60 nM
IC50 [3]: > 10 µM
IC50 [4]: 4200 nM

Cc1cc(-c2ccc3nc(N)cn3n2)cc2c1C(=O)N([C@@H](C)C1CC1)C2 (racemic)
Ratio IC50 (Homo sapiens): > 24
IC50 [1]: > 10 µM
IC50 (PI3K p110 beta/p85 alpha): > 10 µM
IC50 [2]: 425 nM
IC50 [3]: > 10 µM
IC50 [4]: 1500 nM

CC(=O)Nc1cn2nc(-c3cc(C)c4c(c3)CN([C@@H](C)C3CC3)C4=O)ccc2n1
Ratio IC50 (Homo sapiens): > 1820
IC50 [1]: > 10 µM
IC50 (PI3K p110 beta/p85 alpha): > 10 µM
IC50 [2]: 5.5 nM
IC50 [3]: > 10 µM
IC50 [4]: 450 nM

CC(=O)Nc1cc2nc(-c3cc4c(c(C(F)(F)F)c3)C(=O)N([C@@H](C)C3CC3)C4)ccn2n1
hepatocyte CLint at 0.5 µM [5]: 2.4 µL/min/1e6 cells
hepatocyte CLint [6]: < 1.2 µL/min/1e6 cells
IC50 [1]: 8.34 µM
IC50 [2]: 2.2 nM
IC50 [3]: 2.61 µM
IC50 [4]: 150 nM

Cc1cc(-c2ccc3[nH]c(N)nc3c2)cc2c1C(=O)N([C@@H](C)C1CC1)C2 (racemic)
IC50 [1]: > 10 µM
IC50 (PI3K p110 beta/p85 alpha): > 10 µM
IC50 [2]: > 10000 nM
IC50 [3]: > 10 µM

Cc1cc(-c2ccn3nc(N)c(-c4ccccn4)c3n2)cc2c1C(=O)N([C@@H](C)C1CC1)C2
IC50 [1]: > 10 µM
IC50 [2]: 64 nM
IC50 [3]: > 10 µM
IC50 [4]: 2300 nM

Cc1ncc(-c2c(N)nn3ccc(-c4cc(C)c5c(c4)CN([C@@H](C)C4CC4)C5=O)nc23)o1
IC50 [1]: 2.26 µM
IC50 [2]: 5.9 nM
IC50 [3]: 3.25 µM
IC50 [4]: 230 nM

CC(C)c1cc(-c2c(N)nn3ccc(-c4cc5c(c(C(F)(F)F)c4)C(=O)N([C@@H](C)C4CC4)C5)nc23)ccc1C(=O)O
Ratio IC50 (Homo sapiens): 10100
IC50 [1]: 0.0824 µM
IC50 (PI3K p110 beta/p85 alpha): 10.1 µM
IC50 [2]: 1 nM
IC50 [3]: 0.125 µM
IC50 [4]: 76 nM

Cc1cc(-c2ccn3nc(N)c(-c4ccn[nH]4)c3n2)cc2c1C(=O)N([C@@H](C)C1CC1)C2
IC50 [1]: 1.98 µM
IC50 [2]: 44 nM
IC50 [3]: 2.69 µM
IC50 [4]: 620 nM

Cc1cc(-c2ccc3nc(NC(=O)N4CCC[C@H]4C(N)=O)cn3n2)cc2c1C(=O)N([C@@H](C)C1CC1)C2
IC50 [1]: 2.47 µM
IC50 [2]: 2.9 nM
IC50 [3]: 8.21 µM
IC50 [4]: 460 nM

Cc1cc(-c2ccn3nc(N)nc3c2)cc2c1C(=O)N([C@@H](C)C1CC1)C2
Ratio IC50 (Homo sapiens): > 200
IC50 [1]: > 10 µM
IC50 (PI3K p110 beta/p85 alpha): > 10 µM
IC50 [2]: 50 nM
IC50 [3]: > 10 µM
IC50 [4]: 3100 nM

Cc1cc(-c2c(N)nn3ccc(-c4cc(C)c5c(c4)CN([C@@H](C)C4CC4)C5=O)nc23)ccc1C(=O)O
IC50 [1]: 0.096 µM
IC50 [2]: 2.2 nM
IC50 [3]: 0.21 µM
IC50 [4]: 210 nM

C[C@@H](C1CC1)N1Cc2cc(-c3ccn4nc(N)c(-c5ncccn5)c4n3)cc(C(F)(F)F)c2C1=O
IC50 [1]: > 10 µM
IC50 [2]: 53 nM
IC50 [3]: > 10 µM
IC50 [4]: 800 nM
